Measured values: patent US11926613B2, “Kinase inhibitors for the treatment of central and peripheral nervous system disorders” (UNIVERSITY OF MIAMI, priority 2017, dated 2024)

Tested on: Primary Neurons
Experiment: HCS neurite outgrowth assay (High Content Screening with Primary Neurons)
Assay type: cell-based
Conditions: Primary neuron

Row | SMILES | EC50 [µM]
1 | CCOc1ccc(O)c(C(=O)c2ccc(C(=O)N[C@@H]3CNC[C@H]3NC(=O)c3ccncc3)cc2)c1 [Example A90, N-((3R,4R)-4-(4-(5-ethoxy-2-hydroxybenzoyl)benzamido)pyrrolidin-3-yl)isonicotinamide] | 1.79
2 | O=C(N[C@@H]1CNC[C@H]1NC(=O)c1ccc(C(=O)c2cc(F)ccc2O)cc1)c1ccncc1 [Example A91, N-((3R,4R)-4-(4-(5-fluoro-2-hydroxybenzoyl)benzamido)pyrrolidin-3-yl)isonicotinamide] | 3.41
3 | O=C(N[C@@H]1CNC[C@H]1NC(=O)c1ccc(C(=O)c2cc(-c3ccccc3)ccc2O)cc1)c1ccncc1 [Example A93, N-((3R,4R)-4-(4-(4-hydroxy-[1,1′-biphenyl]-3-carbonyl)benzamido)pyrrolidin-3-yl)isonicotinamide] | 13.3
4 | COc1ccc(O)c(C(=O)c2ccc(C(=O)N[C@@H]3CCCNC[C@H]3NC(=O)c3ccncc3)cc2)c1F [Example A94, N-((3R,4R)-4-(4-(2-fluoro-6-hydroxy-3-methoxybenzoyl)benzamido)azepan-3-yl)isonicotinamide] | 0.813
5 | CCc1ccc(O)c(C(=O)c2ccc(C(=O)N[C@@H]3CNC[C@H]3NC(=O)c3ccncc3)cc2)c1 [Example A95, N-((3R,4R)-4-(4-(5-ethyl-2-hydroxybenzoyl)benzamido)pyrrolidin-3-yl)isonicotinamide] | 9.77
6 | O=C(N[C@@H]1CNC[C@H]1NC(=O)c1ccc(C(=O)c2cc(OC(F)(F)F)ccc2O)cc1)c1ccncc1 [Example A96, N-((3R,4R)-4-(4-(2-hydroxy-5-(trifluoromethoxy)benzoyl)benzamido)pyrrolidin-3-yl)isonicotinamide] | 1.45
7 | O=C(N[C@@H]1CNC[C@H]1NC(=O)c1ccc(C(=O)c2cc(OCc3ccccc3)ccc2O)cc1)c1ccncc1 [Example A97, N-((3R,4R)-4-(4-(5-(benzyloxy)-2-hydroxybenzoyl)benzamido)pyrrolidin-3-yl)isonicotinamide] | 11.3
8 | CC(C)(C)Oc1ccc(O)c(C(=O)c2ccc(C(=O)N[C@@H]3CNC[C@H]3NC(=O)c3ccncc3)cc2)c1 [Example A98, N-((3R,4R)-4-(4-(5-(tert-butoxy)-2-hydroxybenzoyl)benzamido)pyrrolidin-3-yl)isonicotinamide] | 9.97
9 | O=C(N[C@@H]1CNC[C@H]1NC(=O)c1ccc(C(=O)c2cc(C(F)(F)F)ccc2O)cc1)c1ccncc1 [Example A99, N-((3R,4R)-4-(4-(2-hydroxy-5-(trifluoromethyl)benzoyl)benzamido)pyrrolidin-3-yl)isonicotinamide] | 2.36
